Test results taken from patent US7432264B2, “Antimicrobial biaryl compounds” (Isis Pharmaceuticals, Inc., priority 2000, dated 2008).
Values after ≈ are worked out from the molar mass of the structure shown. Like-named read-outs stand apart in the source and are kept apart here.

Assays:
E. coli ATCC 25922 = experiment: Minimum inhibitory concentration (MIC), E. coli; format: cell-based, Escherichia coli
Procedure: (§1) Bacterial Strains. The Streptococcus pyogenes strains, Klebsiella pneumoniae, Escherichia coli, Staphylococcus aureus, Enterococcus faecalis used in the antibacterial activity studies ATCC 14289, 49399, 13883, 25922, 13709, 29212, respectively, are obtained from the American Type Culture Collection, Rockville, Md. The strain E. coli imp— is a mutant strain of wild type E. coli with increased outer membrane permeability and was grown in LB broth at 37 °C. S. pyogenes strain is grown in Todd-Hewitt broth. S. aureus is grown in trypticase soy broth, E. faecalis in Todd-Hewitt broth, wild type E. coli and K. pneumoniae, in nutrient broth.
(§2) Determination of Minimum Inhibitory Concentrations (MICs). The assays were carried out in […] volume in duplicate in 96-well clear flat-bottom plates. The bacterial suspension from an overnight culture growth in appropriate medium was added to a solution of test compound in 4% DMSO in water. Final bacterial inoculum was approximately 10^5-10^6 CFU/well. The percent growth of the bacteria in test wells relative to that observed for a well containing no compound was determined by measuring absorbance at 595 nm (A595) after 24 h. […] Both ampicillin and tetracycline is used as antibiotic-positive controls in each screening assay for S. pyogenes, E. coli imp-, E. coli, S. aureus, E. faecalis, K pneumoniae and P. vulgaris. Ciprofloxacin is used as an antibiotic positive control in each screening assay for P. aeruginosa.

S. aureus ATCC 13709 = experiment: Minimum inhibitory concentration (MIC), S. aureus; format: cell-based, Staphylococcus aureus
Procedure: as §1, §2

[1] = system: E. coli S30 bacterial extract (protein synthesis); format: biochemical
Procedure: Coupled Bacterial Transcription/Translation Assay. The DNA template, pBestLuc™ (Promega), is a plasmid containing a reporter gene for firefly luciferase fused to a strong tac promoter and ribosome binding site. Messenger RNA from 1 μg pBestLuc was transcribed and translated in E. coli S30 bacterial extract in the presence or absence of test compound. Compounds were tested in a black 96 well microtiter plate with an assay volume of 35 μL. Each test well contained: 5 μL test compound, 13 μL S30 premix (Promega), 4 μL 10× complete amino acid mix (1 mM each), 5 μL E. coli S30 extract and 8 μL of […] pBestLuc™. The transcription/translation reaction was incubated for 35 minutes at 37° C. followed by detection of functional luciferase with the addition of 30 μL LucLite™ (Packard). Light output was quantitated on a Packard TopCount.

[2] = Escherichia coli, ATCC25922, 24 h, read-out: MIC (E. coli)
[3] = Staphylococcus aureus, ATCC13709, 24 h, read-out: MIC (S. aureus)

SMILES	MIC (E. coli ATCC 25922; [2]) [mM]	MIC (S. aureus ATCC 13709; [3]) [mM]	also measured
CC(=O)NCC1CN(c2ccc(N3CCOCC3)c(F)c2)C(=O)O1 (stereo not shown)	–	–	MIC (E. coli ATCC 25922; Escherichia coli, ATCC25922; alone (no serum); read-out: MIC (E. coli) alone): 2 to 3 mM (≈ 675 to 1010 µg/mL); MIC (E. coli ATCC 25922; Escherichia coli, ATCC25922; with serum; read-out: MIC (E. coli) +serum): 3 to 6 mM (≈ 1010 to 2020 µg/mL); MIC (S. aureus ATCC 13709; Staphylococcus aureus, ATCC13709; alone (no serum); read-out: MIC (S. aureus) alone): 2 mM (≈ 675 µg/mL); MIC (S. aureus ATCC 13709; Staphylococcus aureus, ATCC13709; with serum; read-out: MIC (S. aureus) +serum): 2 to 3 mM (≈ 675 to 1010 µg/mL)
CN(C)CCCOc1ccc(C(NC(=O)c2ccc(-c3cccc(NC(=O)c4ccc(-c5cccc(F)c5)cc4)c3)o2)C(=O)N2CCNCC2)cc1 (stereo not shown)	6 to 13 (≈ 4220 to 9150 µg/mL)	3 to 6 (≈ 2110 to 4220 µg/mL)	–
CC(=O)c1ccccc1-c1ccc(C(=O)Nc2cccc(-c3ccc(C(=O)NC(C(=O)N4CCNCC4)c4ccc(OCCCN(C)C)cc4)o3)c2)cc1 (stereo not shown)	> 100	6 to 13 (≈ 4370 to 9460 µg/mL)	–
CN(C)CCCOc1ccc(C(NC(=O)c2ccc(-c3cccc(NC(=O)c4ccc5[nH]c(=O)c(=O)[nH]c5c4)c3)o2)C(N)=O)cc1 (stereo not shown) [Compound 21]	–	–	fold less potent than 12 ([1]; versus 12): ~3 fold
CN(C)CCCOc1ccc(C(NC(=O)c2ccc3[nH]c(=O)c(=O)[nH]c3c2)C(=O)N2CCNCC2)cc1 (stereo not shown) [Compound 22]	–	–	activity in bacterial protein synthesis assay at 200:M ([1]; at 200:M): inactive
CCc1ccc(-c2ccc(C(=O)Nc3cccc(-c4ccc(C(=O)NC(C(=O)N5CCNCC5)c5ccc(OCCCN(C)C)cc5)o4)c3)cc2)cc1 (stereo not shown) [Compound 35]	50 to 100 (≈ 35700 to 71400 µg/mL)	6 to 13 (≈ 4280 to 9280 µg/mL)	–
CCCc1ccc(-c2ccc(C(=O)Nc3cccc(-c4ccc(C(=O)NC(C(=O)N5CCNCC5)c5ccc(OCCCN(C)C)cc5)o4)c3)cc2)cc1 (stereo not shown) [Compound 36]	> 100	13 to 25 (≈ 9460 to 18200 µg/mL)	–
CN(C)CCCOc1ccc(C(NC(=O)c2ccc(-c3cccc(NC(=O)c4ccc(-c5ccc(C(C)(C)C)cc5)cc4)c3)o2)C(=O)N2CCNCC2)cc1 (stereo not shown) [Compound 37]	> 100	> 100	–
Cc1ccccc1-c1ccc(C(=O)Nc2cccc(-c3ccc(C(=O)NC(C(=O)N4CCNCC4)c4ccc(OCCCN(C)C)cc4)o3)c2)cc1 (stereo not shown) [Compound 38]	3 to 6 (≈ 2100 to 4200 µg/mL)	3 to 6 (≈ 2100 to 4200 µg/mL)	–
Cc1cccc(-c2ccc(C(=O)Nc3cccc(-c4ccc(C(=O)NC(C(=O)N5CCNCC5)c5ccc(OCCCN(C)C)cc5)o4)c3)cc2)c1 (stereo not shown) [Compound 39]	13 to 25 (≈ 9100 to 17500 µg/mL)	13 to 25 (≈ 9100 to 17500 µg/mL)	–
CCc1ccccc1-c1ccc(C(=O)Nc2cccc(-c3ccc(C(=O)NC(C(=O)N4CCNCC4)c4ccc(OCCCN(C)C)cc4)o3)c2)cc1 (stereo not shown) [Compound 41]	13 to 25 (≈ 9280 to 17800 µg/mL)	3 to 6 (≈ 2140 to 4280 µg/mL)	–
Cc1cccc(-c2ccc(C(=O)Nc3cccc(-c4ccc(C(=O)NC(C(=O)N5CCNCC5)c5ccc(OCCCN(C)C)cc5)o4)c3)cc2)c1C (stereo not shown) [Compound 42]	–	–	MIC (E. coli ATCC 25922; Escherichia coli, ATCC25922, 24 h; read-out: MIC (E. coli)): 13 to 25 mM (≈ 9280 to 17800 µg/mL); MIC (S. aureus ATCC 13709; Staphylococcus aureus, ATCC13709, 24 h; read-out: MIC (S. aureus)): 3 to 6 mM (≈ 2140 to 4280 µg/mL)
Cc1ccc(C)c(-c2ccc(C(=O)Nc3cccc(-c4ccc(C(=O)NC(C(=O)N5CCNCC5)c5ccc(OCCCN(C)C)cc5)o4)c3)cc2)c1 (stereo not shown) [Compound 43]	25 to 50 (≈ 17800 to 35700 µg/mL)	13 to 25 (≈ 9280 to 17800 µg/mL)	–
Cc1cccc(C)c1-c1ccc(C(=O)Nc2cccc(-c3ccc(C(=O)NC(C(=O)N4CCNCC4)c4ccc(OCCCN(C)C)cc4)o3)c2)cc1 (stereo not shown) [Compound 44]	25 to 50 (≈ 17800 to 35700 µg/mL)	13 to 25 (≈ 9280 to 17800 µg/mL)	–
Cc1cc(C)c(-c2ccc(C(=O)Nc3cccc(-c4ccc(C(=O)NC(C(=O)N5CCNCC5)c5ccc(OCCCN(C)C)cc5)o4)c3)cc2)c(C)c1 (stereo not shown) [Compound 45]	50 to 100 (≈ 36400 to 72800 µg/mL)	13 to 25 (≈ 9460 to 18200 µg/mL)	–
CN(C)CCCOc1ccc(C(NC(=O)c2ccc(-c3cccc(NC(=O)c4ccc(-c5ccccc5Cl)cc4)c3)o2)C(=O)N2CCNCC2)cc1 (stereo not shown) [Compound 47]	6 to 13 (≈ 4320 to 9360 µg/mL)	25 to 50 (≈ 18000 to 36000 µg/mL)	–
CN(C)CCCOc1ccc(C(NC(=O)c2ccc(-c3cccc(NC(=O)c4ccc(-c5cccc(Cl)c5)cc4)c3)o2)C(=O)N2CCNCC2)cc1 (stereo not shown) [Compound 48]	13 to 25 (≈ 9360 to 18000 µg/mL)	13 to 25 (≈ 9360 to 18000 µg/mL)	–
